Measurements as given in PMC11091978 (ACS Pharmacology & Translational Science, 2024).

Target: NLRP3 (Homo sapiens, UniProt Q96P20)
Format: cell-based

NLRP3, sequence (Q96P20 whole entry): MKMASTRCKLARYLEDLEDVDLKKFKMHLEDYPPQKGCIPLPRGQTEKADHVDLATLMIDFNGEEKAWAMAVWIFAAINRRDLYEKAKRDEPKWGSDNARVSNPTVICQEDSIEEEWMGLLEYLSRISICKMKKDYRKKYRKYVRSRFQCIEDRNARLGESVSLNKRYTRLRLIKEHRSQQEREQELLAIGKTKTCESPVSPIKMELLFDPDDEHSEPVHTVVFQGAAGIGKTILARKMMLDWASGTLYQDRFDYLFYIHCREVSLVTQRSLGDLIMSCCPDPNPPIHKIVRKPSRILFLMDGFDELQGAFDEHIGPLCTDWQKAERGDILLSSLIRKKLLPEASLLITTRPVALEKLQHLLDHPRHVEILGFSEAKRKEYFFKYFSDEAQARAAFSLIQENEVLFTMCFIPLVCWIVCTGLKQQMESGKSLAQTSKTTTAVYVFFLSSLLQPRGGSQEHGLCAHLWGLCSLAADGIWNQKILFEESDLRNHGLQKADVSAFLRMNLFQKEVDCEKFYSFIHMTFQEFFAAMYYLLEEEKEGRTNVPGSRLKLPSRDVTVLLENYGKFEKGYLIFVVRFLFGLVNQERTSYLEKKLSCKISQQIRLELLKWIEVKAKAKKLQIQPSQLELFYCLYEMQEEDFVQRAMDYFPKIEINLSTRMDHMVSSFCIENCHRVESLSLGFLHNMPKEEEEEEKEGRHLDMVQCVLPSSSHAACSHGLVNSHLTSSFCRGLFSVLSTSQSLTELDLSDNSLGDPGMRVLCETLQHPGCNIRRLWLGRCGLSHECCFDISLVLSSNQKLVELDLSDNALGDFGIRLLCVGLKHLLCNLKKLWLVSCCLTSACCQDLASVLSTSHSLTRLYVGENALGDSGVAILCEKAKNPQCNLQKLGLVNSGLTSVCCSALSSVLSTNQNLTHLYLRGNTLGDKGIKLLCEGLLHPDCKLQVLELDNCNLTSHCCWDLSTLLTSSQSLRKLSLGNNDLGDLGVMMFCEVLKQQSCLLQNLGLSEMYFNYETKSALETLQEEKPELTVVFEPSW

Cn1cc(N(C[C@@H]2CCCO2)S(=O)(=O)NC(=O)Nc2c3c(cc4c2CCC4)CCC3)cn1 [NT-0249, [(1,2,3,5,6,7-hexahydro-s-indacen-4-yl)carbamoyl][(1-methyl-1H-pyrazol-4-yl)({[(2S)-oxolan-2-yl]methyl})sulfamoyl]azanide]
IC50: 11 nM
